From US7662832B2, “Pyrrolo[2,3-c]pyridine derivatives and processes for the preparation thereof” (priority 2004, dated 2010)
Counter-ions that a name gives are not always drawn.

The compounds below were run against Proton Pump (H^+/K^+-ATPase) (Sus scrofa, UniProt P19156) (assay: Inhibitory effects on proton pump (H^+/K^+-ATPase) activity). Conditions: hog gastric vesicles; K^+ stimulated H^+/K^+-ATPase activity; 30 minutes at 37° C.
Format: biochemical

Proton Pump (H^+/K^+-ATPase), sequence (P19156 2-1034 limits assumed): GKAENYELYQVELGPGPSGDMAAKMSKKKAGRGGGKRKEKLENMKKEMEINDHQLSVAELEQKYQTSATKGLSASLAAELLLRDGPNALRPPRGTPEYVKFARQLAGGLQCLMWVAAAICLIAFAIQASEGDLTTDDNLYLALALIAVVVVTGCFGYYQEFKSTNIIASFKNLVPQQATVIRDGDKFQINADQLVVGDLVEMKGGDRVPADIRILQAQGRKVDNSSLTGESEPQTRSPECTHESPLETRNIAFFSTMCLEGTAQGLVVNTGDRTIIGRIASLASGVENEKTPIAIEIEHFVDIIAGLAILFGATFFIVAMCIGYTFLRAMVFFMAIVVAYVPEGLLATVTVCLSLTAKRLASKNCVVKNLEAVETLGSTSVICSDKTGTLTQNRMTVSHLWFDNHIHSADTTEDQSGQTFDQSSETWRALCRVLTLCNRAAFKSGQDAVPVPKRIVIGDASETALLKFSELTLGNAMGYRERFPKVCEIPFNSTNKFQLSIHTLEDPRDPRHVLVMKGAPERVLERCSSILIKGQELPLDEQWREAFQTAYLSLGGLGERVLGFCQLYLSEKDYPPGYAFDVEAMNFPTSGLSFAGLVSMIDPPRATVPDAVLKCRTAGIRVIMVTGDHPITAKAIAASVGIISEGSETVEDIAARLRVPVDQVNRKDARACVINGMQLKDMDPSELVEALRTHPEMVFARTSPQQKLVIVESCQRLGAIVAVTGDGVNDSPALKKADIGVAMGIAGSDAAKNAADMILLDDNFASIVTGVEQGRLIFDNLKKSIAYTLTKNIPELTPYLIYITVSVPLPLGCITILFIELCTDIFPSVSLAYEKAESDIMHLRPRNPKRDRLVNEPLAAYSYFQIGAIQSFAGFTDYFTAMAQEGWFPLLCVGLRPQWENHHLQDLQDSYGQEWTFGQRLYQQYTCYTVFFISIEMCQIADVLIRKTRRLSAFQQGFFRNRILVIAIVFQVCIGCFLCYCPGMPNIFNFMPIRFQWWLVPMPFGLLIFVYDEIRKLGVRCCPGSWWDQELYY
Proton Pump (H^+/K^+-ATPase), sequence (P18434 whole entry partner): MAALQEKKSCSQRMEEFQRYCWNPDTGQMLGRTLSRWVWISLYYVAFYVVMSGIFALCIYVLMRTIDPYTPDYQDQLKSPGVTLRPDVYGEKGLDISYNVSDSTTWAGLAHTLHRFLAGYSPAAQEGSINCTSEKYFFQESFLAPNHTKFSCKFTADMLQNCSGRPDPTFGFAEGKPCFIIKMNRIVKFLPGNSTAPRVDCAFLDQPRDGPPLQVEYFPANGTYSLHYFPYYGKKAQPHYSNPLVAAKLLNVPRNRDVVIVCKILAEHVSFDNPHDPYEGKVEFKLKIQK

Compound	IC50
Cc1c(C)n(Cc2cccc(F)c2)c2c(N3CCc4ccccc4C3)nc(C=O)cc12 [Example 864, 7-(3,4-dihydro-1H-isoquinolin-2-yl)-1-(3-fluorobenzyl)-2,3-dimethyl-1H-pyrrolo[2,3-c]pyridin-5-carbaldehyde hydrochloride]	213 nM
Cc1c(C)n(Cc2cccc(Cl)c2)c2c(N3CCc4ccccc4C3)nc(C(=O)N3CCSCC3)cc12 [Example 790, [1-(3-chlorobenzyl)-7-(3,4-dihydro-1H-isoquinolin-2-yl)-2,3-dimethyl-1H-pyrrolo[2,3-c]pyridin-5-yl]-(thiomorpholin-1-yl)-methanone hydrochloride]	128 nM
CCCn1c(C)c(C)c2ccnc(NCc3ccc(C)cc3)c21 [Example 205, 2,3-dimethyl-7-(4-methylbenzylamino)-1-propyl-1H-pyrrolo[2,3-c]pyridine hydrochloride]	330 nM
COCCn1c(C)c(C)c2ccnc(N3CCc4ccc(F)cc4C3C)c21 (stereo not drawn) [Example 546, 7-fluoro-2-[1-(2-methoxyethyl)-2,3-dimethyl-1H-pyrrolo[2,3-c]pyridin-7-yl]-1-methyl-1,2,3,4-tetrahydroisoquinoline hydrochloride]	250 nM
Cc1c(C)n(Cc2ccccc2)c2c(C=Cc3ccccc3)nccc12 [Example 418, 1-benzyl-2,3-dimethyl-7-styryl-1H-pyrrolo[2,3-c]pyridine hydrochloride]	290 nM
COCCn1c(C)c(C)c2ccnc(N3CCc4ccccc4C3C3CC3)c21 (stereo not drawn) [Example 571, 1-cyclopropyl-2-[1-(2-methoxyethyl)-2,3-dimethyl-1H-pyrrolo[2,3-c]pyridin-7-yl]-1,2,3,4-tetrahydroisoquinoline hydrochloride]	470 nM
Cc1c(C)n(Cc2ccccc2F)c2c(CN(C)c3ccc(F)cc3)nccc12 [Example 115, N-[1-(2-fluorobenzyl)-2,3-dimethyl-1H-pyrrolo[2,3-c]pyridin-7-ylmethyl]-N-(4-fluorophenyl)-methylamine hydrochloride]	142 nM
C=CCCn1c(C)c(C)c2ccnc(NCc3ccccc3)c21 [Example 181, 7-benzylamino-1-(but-3-enyl)-2,3-dimethyl-1H-pyrrolo[2,3-c]pyridine hydrochloride]	360 nM
C#CCn1c(C)c(C)c2cc(Cl)nc(N3CCc4ccccc4C3)c21 [Example 659, 2-[5-chloro-2,3-dimethyl-1-(prop-2-ynyl)-1H-pyrrolo[2,3-c]pyridin-7-yl]-1,2,3,4-tetrahydroisoquinoline]	439 nM
Cc1c(C)n(Cc2ccccc2)c2c(N3CCc4ccccc4C3)nc(C(=O)O)cc12 [Example 744, 1-benzyl-7-(3,4-dihydro-1H-isoquinolin-2-yl)-2,3-dimethyl-1H-pyrrolo[2,3-c]pyridin-5-carboxylate sodium]	130 nM
Cc1ccc(Cn2c(C)c(C)c3ccnc(COc4ccc(F)cc4)c32)cc1 [Example 5, 7-(4-fluorophenoxymethyl)-2,3-dimethyl-1-(4-methylbenzyl)-1H-pyrrolo[2,3-c]pyridine hydrochloride]	450 nM
CC(C)=CCn1c(C)c(C)c2ccnc(CN(C)c3ccc(F)cc3)c21 [Example 119, N-[2,3-dimethyl-1-(3-methylbut-2-enyl)-1H-pyrrolo[2,3-c]pyridin-7-ylmethyl]-N-(4-fluorophenyl)-methylamine hydrochloride]	405 nM
C=Cc1ccc(-c2nccc3c(C)c(C)n(Cc4cccc(OC)c4)c23)cc1 [Example 253, 2,3-dimethyl-1-(3-methoxybenzyl)-7-(4-vinylphenyl)-1H-pyrrolo[2,3-c]pyridine hydrochloride]	170 nM
Cc1ccc(Cn2c(C)c(C)c3ccnc(NCc4ccc(F)cc4)c32)cc1 [Example 220, 7-(4-fluorobenzylamino)-2,3-dimethyl-1-(4-methylbenzyl)-1H-pyrrolo[2,3-c]pyridine hydrochloride]	430 nM
Cc1ccc(OCc2nccc3c(C)c(C)n(Cc4ccccc4)c23)cc1 [Example 15, 1-benzyl-2,3-dimethyl-7-(p-tolyloxymethyl)-1H-pyrrolo[2,3-c]pyridine hydrochloride]	140 nM
Cc1ccc(Cn2c(C)c(C)c3ccnc(NCc4ccc(Cl)cc4)c32)cc1 [Example 221, 7-(4-chlorobenzylamino)-2,3-dimethyl-1-(4-methylbenzyl)-1H-pyrrolo[2,3-c]pyridine hydrochloride]	630 nM
CCC1c2ccccc2CCN1c1nccc2c(C)c(C)n(COC)c12 (stereo not drawn) [Example 584, 1-ethyl-2-(1-methoxymethyl-2,3-dimethyl-1H-pyrrolo[2,3-c]pyridin-7-yl)-1,2,3,4-tetrahydroisoquinoline hydrochloride]	330 nM
Cc1c(C)n(Cc2cccc(F)c2)c2c(N3CCc4ccccc4C3)nc(C(C)O)cc12 (stereo not drawn) [Example 860, 1-[7-(3,4-dihydro-1H-isoquinolin-2-yl)-1-(3-fluorobenzyl)-2,3-dimethyl-1H-pyrrolo[2,3-c]pyridin-5-yl]-ethanol hydrochloride]	313 nM
C=CCCn1c(C)c(C)c2ccnc(N3CCc4ccccc4C3)c21 [Example 508, 1-(but-3-enyl)-7-(1,2,3,4-tetrahydroisoquinolin-2-yl)-2,3-dimethyl-1H-pyrrolo[2,3-c]pyridine hydrochloride]	320 nM
Cc1c(C)n(Cc2cccc(F)c2)c2c(CNc3ccc(F)cc3)nccc12 [Example 91, N-[1-(3-fluorobenzyl)-2,3-dimethyl-1H-pyrrolo[2,3-c]pyridin-7-ylmethyl]-4-fluorophenylamine hydrochloride]	209 nM
CCC1c2ccccc2CCN1c1nccc2c(C)c(C)n(Cc3csc(C)n3)c12 (stereo not drawn) [Example 586, 1-ethyl-2-[2,3-dimethyl-1-(2-methylthiazol-4-ylmethyl)-1H-pyrrolo[2,3-c]pyridin-7-yl]-1,2,3,4-tetrahydroisoquinoline hydrochloride]	330 nM
C=CCn1c(C)c(C)c2ccnc(N3CCc4ccc(Cl)cc4C3C)c21 (stereo not drawn) [Example 531, 7-chloro-2-(1-allyl-2,3-dimethyl-1H-pyrrolo[2,3-c]pyridin-7-yl)-1-methyl-1,2,3,4-tetrahydroisoquinoline hydrochloride]	190 nM
COc1cccc(Cn2c(C)c(C)c3ccnc(COc4ccc(F)cc4)c32)c1 [Example 4, 7-(4-fluorophenoxymethyl)-1-(3-methoxybenzyl)-2,3-dimethyl-1H-pyrrolo[2,3-c]pyridine hydrochloride]	150 nM
CSc1ccc(-c2nccc3c(C)c(C)n(CC4CC4)c23)cc1 [Example 270, 1-cyclopropylmethyl-2,3-dimethyl-7-(4-methylsulfanylphenyl)-1H-pyrrolo[2,3-c]pyridine hydrochloride]	450 nM

Now those with a lower IC50, led by results:

IC50	Compound
26 nM	Cc1c(C)n(Cc2cccc(F)c2)c2c(N3CCc4ccccc4C3)nc(CN3CCN(C)CC3)cc12 [Example 873, 2-[1-(3-fluorobenzyl)-2,3-dimethyl-5-(4-methylpiperazin-1-ylmethyl)-1H-pyrrolo[2,3-c]pyridin-7-yl]-1,2,3,4-tetrahydroisoquinoline hydrochloride]
122 nM	Cc1ccc(Cn2c(C)c(C)c3ccnc(CCc4ccccc4)c32)cc1 [Example 444, 2,3-dimethyl-1-(4-methylbenzyl)-7-phenethyl-1H-pyrrolo[2,3-c]pyridine hydrochloride]
10 nM	Cc1c(CC#N)c2ccnc(N3CCc4ccccc4C3)c2n1Cc1ccccc1 [Example 624, [1-benzyl-7-(3,4-dihydro-1H-isoquinolin-2-yl)-2-methyl-1H -pyrrolo[2,3-c]pyridin-3-yl]-acetonitrile hydrochloride]
112 nM	Cc1c(C)n(Cc2ccccc2)c2c(N3CCc4ccccc4C3)nc(C(N)=O)cc12 [Example 745, 1-benzyl-7-(3,4-dihydro-1H-isoquinolin-2-yl)-2,3-dimethyl-1H-pyrrolo[2,3-c]pyridin-5-carboxamide]
59 nM	COCCn1c(C)c(C)c2cc(C(=O)N3CCCCC3)nc(N3CCc4ccccc4C3)c21 [Example 792, [7-(3,4-dihydro-1H-isoquinolin-2-yl)-1-(2-methoxyethyl)-2,3-dimethyl-1H-pyrrolo[2,3-c]pyridin-5-yl]-(piperidin-1-yl)-methanone hydrochloride]
17 nM	Cc1[nH]c2c(N3CCc4ccccc4C3C)nccc2c1C (stereo not drawn) [Example 560, 2-(2,3-dimethyl-1H-pyrrolo[2,3-c]pyridin-7-yl)-1-methyl-1,2,3,4-tetrahydroisoquinoline sodium]
77 nM	Cc1[nH]c2c(N3CCc4ccccc4C3)nc(C(=O)N3CCN(C)CC3)cc2c1C [Example 827, [7-(3,4-dihydro-1H-isoquinolin-2-yl)-2,3-dimethyl-1H-pyrrolo[2,3-c]pyridin-5-yl]-(4-methylpiperazin-1-yl)-methanone hydrochloride]
52 nM	Cc1c(C)n(Cc2ccccc2)c2c(N3CCc4ccccc4C3)nc(C(=O)N3CCCCC3)cc12 [Example 788, [1-benzyl-7-(3,4-dihydro-1H-isoquinolin-2-yl)-2,3-dimethyl-1H-pyrrolo[2,3-c]pyridin-5-yl]-(piperidin-1-yl)-methanone hydrochloride]
100 nM	C=CCn1c(C)c(C)c2ccnc(-c3ccc(C=C)cc3)c21 [Example 245, 1-allyl-2,3-dimethyl-7-(4-vinylphenyl)-1H-pyrrolo[2,3-c]pyridine hydrochloride]
30 nM	C=CCn1c(C)c(C)c2cc(C(=O)NC)nc(N3CCc4ccccc4C3)c21 [Example 757, 1-allyl-7-(3,4-dihydro-1H-isoquinolin-2-yl)-2,3-dimethyl-N-methyl-1H-pyrrolo[2,3-c]pyridin-5-carboxamide hydrochloride]
90 nM	C=Cc1ccc(-c2nccc3c(C)c(C)n(Cc4cccc(F)c4)c23)cc1 [Example 243, 1-(3-fluorobenzyl)-2,3-dimethyl-7-(4-vinylphenyl)-1H-pyrrolo[2,3-c]pyridine hydrochloride]
24 nM	Cc1c(C)n(CC2CC2)c2c(N3CCc4ccccc4C3)nc(C(=O)N3CCN(C)CC3)cc12 [Example 817, [1-cyclopropylmethyl-7-(3,4-dihydro-1H-isoquinolin-2-yl)-2,3-dimethyl-1H-pyrrolo[2,3-c]pyridin-5-yl]-(4-methylpiperazin-1-yl)-methanone hydrochloride]
